Active and inactive are the calls of the source. The rule behind the calls is not given here. Some results are limits rather than exact numbers.

The values that follow come from PubChem BioAssay AID1552 (Sanford-Burnham Center for Chemical Genomics, 2009).

The target in the test is Ubiquitin-conjugating enzyme E2 N (Homo sapiens) (UniProt P61088). The test can be described thus: NMR detection of UBE2N ligand binding – biophysical, purified protein (AID 1552). To be noted: NMR binding to purified UBE2N.
Chain of Ubiquitin-conjugating enzyme E2 N (Homo sapiens) (P61088 whole entry, looked up): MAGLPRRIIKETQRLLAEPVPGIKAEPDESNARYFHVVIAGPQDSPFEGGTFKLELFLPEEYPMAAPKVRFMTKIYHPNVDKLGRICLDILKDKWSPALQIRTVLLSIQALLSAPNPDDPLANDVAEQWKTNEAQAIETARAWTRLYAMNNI
The term Kd denotes the concentration at which binding is half-saturated. Consider `CC(=O)OC/C=C(\C)CC/C=C(\C)CC/C=C(\C)CC/C=C(\C)CC/C=C(\C)CC/C=C(\C)CC/C=C(\C)CC/C=C(\C)CCC=C(C)C`, for which the Kd is > 4 mM (inactive).
The figure for `O=C1C(=O)N(CNc2ncccn2)c2ccccc21` is > 4 mM (inactive); for `CC(=O)Oc1ccc(-c2cc(=O)c3c(OC(C)=O)cc(OC(C)=O)cc3o2)cc1` it is > 4 mM (inactive).
In the case of `Cc1cc(C)n2nc(Cc3ccccc3)nc2n1`, the Kd was > 4 mM (inactive).
The figure for `CCOc1nc(C)ccc1-c1noc(-c2ccncc2)n1` is > 4 mM (inactive).
The figure for `CC(=O)O[C@@H]1CC2C(C)(C)C(=O)[C@@H]3O[C@@H]3[C@]2(C)C2CC[C@]3(C)C(=CC(=O)O[C@H]3c3ccoc3)[C@@]21C` (some centres undefined) is > 4 mM (inactive).
For the compound `O=C(NCCO)c1cc2ccccc2c(=O)s1`, the Kd is > 4 mM (inactive).
`Cc1nc(-c2ccc(NS(C)(=O)=O)cc2)cs1`: the Kd is > 4 mM (inactive).
Consider `Cc1cc(C)n2nc(SCC(=O)c3ccccc3)nc2n1`, for which the Kd was > 4 mM (inactive).
As for `Cc1nc2ccccc2c(=O)n1NC(=O)Nc1ccccc1`, the figure is > 4 mM (inactive); as for `NC1=NC(=O)/C(=C/c2cccs2)S1`, > 4 mM (inactive).
Regarding `O=C(NN=C1CCCC1)c1ccncc1`, the Kd is > 4 mM (inactive).
`CC(=O)Nc1ccc(-c2ccc3nncn3n2)cc1`: the Kd was > 4 mM (inactive).
`CN1CC(=O)Nc2ccc([N+](=O)[O-])cc2C1=O`: the Kd is > 4 mM (inactive).
Take `Cc1cc(C)nc(/N=C(/N)N2CCC(C(N)=O)CC2)n1`: the Kd is > 4 mM (inactive).
The figure for `Cc1cc(N2CCCC2=O)c(N)cc1N` is > 4 mM (inactive); for `O=CN1CCN(C(=O)c2ccccc2F)CC1` it is > 4 mM (inactive); for `CCCNC(=O)CSc1nnc(C)s1` it is > 4 mM (inactive).
Take `Cc1csc(NC(=O)c2ccoc2C)n1`: the Kd is > 4 mM (inactive).
As for `Cc1nnc(N2CCc3ccccc3C2)[nH]c1=O`, the Kd was > 4 mM (inactive).
On to `NC(=O)C12CC3CC(C1)C(=O)C(C3)C2`, for which the Kd is > 4 mM (inactive).
As for `Cc1[nH]ccc2c1[nH]c1cc(=O)ccc12`, the figure is > 4 mM (inactive); as for `CN1CCCCC1c1ccc(-c2cccnc2)nc1` (centres undefined), > 4 mM (inactive).
For `O=C(Nc1ccccc1C(F)(F)F)c1cnccn1`, the Kd was > 4 mM (inactive).
As for `O=C(Nc1ccccc1)Nc1ccccc1`, the Kd is > 4 mM (inactive).
In the case of `Cn1c(=O)cc(O)c2ccccc21`, the Kd was > 4 mM (inactive).
Regarding `Cc1cc(/C=N/O)nc(=O)[nH]1`, the Kd is > 4 mM (inactive).
Regarding `COC(=O)c1ccc2nc[nH]c2c1`, the Kd was > 4 mM (inactive).
In the case of `Cc1nc(-c2cnccn2)sc1C(=O)O`, the Kd is > 4 mM (inactive).
In the case of `CC(=O)N1CCn2c3c(c(=O)c4cc(C)ccc42)CCC31` (centres undefined), the Kd was > 4 mM (inactive).
The figure for `CC1=CC(=O)CC(C)(C)C1(O)/C=C/C(C)=C\C(=O)O` (centres undefined) is > 4 mM (inactive); for `COc1ccccc1NC(N)=S` it is > 4 mM (inactive); for `O=C(O)c1coc2c1C(=O)CCC2` it is > 4 mM (inactive).
In the case of `Cc1ccc(-n2[nH]c(C)cc2=O)cc1`, the Kd is > 4 mM (inactive).
The figure for `O=C(c1ccccc1F)N1CCN(c2ccccc2)CC1` is > 4 mM (inactive); for `CNC(=O)C(=O)Nc1ccc(C)c(C)c1` it is > 4 mM (inactive); for `Cc1sc(N)c(C(N)=O)c1C` it is > 4 mM (inactive).
As for `CN1CCC(NC(=O)c2ccccc2[N+](=O)[O-])CC1`, the Kd is > 4 mM (inactive).
As for `C=CCc1cc(C(=O)N2CCCCC2)ccc1O`, the Kd is > 4 mM (inactive).
On to `Cc1ccc(CCNc2ccccc2)c[n+]1[O-]`, for which the Kd is > 4 mM (inactive).
The figure for `CCOC(=O)CC1NCCNC1=O` (centres undefined) is > 4 mM (inactive); for `O=c1[nH]cc(NC(=S)N2CCOCC2)c(=O)[nH]1` it is > 4 mM (inactive).
As to `OCc1c[nH]c2ccccc12`, the Kd was > 4 mM (inactive).
On to `Nc1c(C(=O)O)sc2ncccc12`, for which the Kd is > 4 mM (inactive).
Turning to `O=C(NCc1ccccn1)c1ccc(Br)s1`, the Kd is > 4 mM (inactive).
For the compound `O=CN1CCN(C2CC(=O)N(c3ccccc3)C2=O)CC1` (centres undefined), the Kd is > 4 mM (inactive).
`c1nnc2c3c4c(sc3ncn12)CCCC4`: the Kd is > 4 mM (inactive).
Take `CCN(CC)S(=O)(=O)c1ccc(F)cc1`: the Kd was > 4 mM (inactive).
Regarding `COc1ccc2c(c1)O[C@@H]1COc3cc(OC)c(OC)cc3[C@@H]1C2=O`, the Kd is > 4 mM (inactive).
Consider `c1ccc2c(c1)[nH]c1cnccc12`, for which the Kd is > 4 mM (inactive).
As to `Cc1nc2ccccc2c(=O)n1-c1cccc(O)c1`, the Kd was > 4 mM (inactive).
The figure for `c1coc(CNc2ncnc3nc[nH]c23)c1` is > 4 mM (inactive); for `NC1=C([N+](=O)[O-])C(=O)c2ccccc21` it is > 4 mM (inactive); for `Nc1nc(SCC(=O)c2ccc([N+](=O)[O-])cc2)n[nH]1` it is > 4 mM (inactive).
With `O=C(Nc1ccc2ccccc2c1)c1cnccn1`, the Kd was > 4 mM (inactive).
Turning to `S=c1[nH]cnc2sccc12`, the Kd is > 4 mM (inactive).
As for `CC(=O)Oc1cc(-c2coc3cc(OC(C)=O)c(OC(C)=O)c(OC(C)=O)c3c2=O)cc(OC(C)=O)c1OC(C)=O`, the figure is > 4 mM (inactive).
Take `c1ccc2c(c1)ncn2CCn1cnc2ccccc21`: the Kd was > 4 mM (inactive).
On to `Cc1ccccc1-n1c(-c2cccnc2)n[nH]c1=S`, for which the Kd is > 4 mM (inactive).
Turning to `O=C(O)c1cccnc1`, the Kd is > 4 mM (inactive).
As for `COc1ccc(NC(=O)N2CCCCC2)cc1`, the figure is > 4 mM (inactive).
Regarding `NC(c1ccccc1)c1ccccn1` (centres undefined), the Kd is > 4 mM (inactive).
For the compound `COc1cc2c(cc1OC)[C@@H]1C(=O)c3ccc4c(c3O[C@@H]1CO2)C=CC(C)(C)O4`, the Kd was > 4 mM (inactive).
Regarding `O=C(NCC1CCNCC1)c1ccccn1`, the Kd is > 4 mM (inactive).
Consider `Cc1ccc(-c2c(C)n([O-])c(C)c(C)[n+]2=O)cc1`, for which the Kd was > 4 mM (inactive).
The figure for `O=C1NNC(=O)C2C3c4ccccc4C(c4ccccc43)C12` (centres undefined) is > 4 mM (inactive).
On to `Cc1nc2ccc(NC(=O)N3CCOCC3)cc2s1`, for which the Kd was > 4 mM (inactive).
On to `CCCc1ncc(C(O)c2cccc3ccccc23)n1C` (centres undefined), for which the Kd is > 4 mM (inactive).
In the case of `Cn1c(=O)[nH]c(=O)c2nsnc21`, the Kd was > 4 mM (inactive).
As for `CCOC(=O)C(C)c1n[nH]c(=O)c2ccccc12` (centres undefined), the figure is > 4 mM (inactive); as for `CC(CC(O)C1OC1(C)C)[C@@H]1CCC2(C)C3=CCC4C(C)(C)C(=O)CCC4(C)C3CC[C@@]12C` (some centres undefined), > 4 mM (inactive); as for `Nc1ccc(S(=O)(=O)N2CCCCC2)cc1`, > 4 mM (inactive).
`NS(=O)(=O)c1ccc(NC(=O)c2cccs2)cc1`: the Kd is > 4 mM (inactive).
On to `O=c1cc(O)n(-c2ccc(F)cc2)c(=S)[nH]1`, for which the Kd was > 4 mM (inactive).
For the compound `CC(C)C(C)/C=C/C(C)[C@H]1CCC2C3=CCC4CC(=O)CC[C@]4(C)C3CC[C@@]21C` (some centres undefined), the Kd was > 4 mM (inactive).
As to `Cc1[nH]c(=O)[nH]c(=O)c1N1CCOCC1`, the Kd was > 4 mM (inactive).
As for `CNC(=S)Nc1ccc2c(c1)OCO2`, the figure is > 4 mM (inactive); as for `Cc1nnc(NCc2cccnc2)[nH]c1=O`, > 4 mM (inactive); as for `CC(=O)Nn1cc2c(=O)n(C)c(=O)n(C)c2c1`, > 4 mM (inactive).
In the case of `NC(N)=NCCCCN=C(N)N`, the Kd is > 4 mM (inactive).
For `O=C1CSC(=Nc2ccccc2)N1`, the Kd was > 4 mM (inactive).
For the compound `Cc1occc1C(=O)N1CCC2(CC1)OCCO2`, the Kd was > 4 mM (inactive).
The figure for `c1ccc(C2NCCc3[nH]cnc32)cc1` (centres undefined) is > 4 mM (inactive); for `CSc1ccccc1NC(=O)c1ccncc1` it is > 4 mM (inactive); for `C[C@@H]1OC(O[C@H]2C(O[C@H]3CC[C@@]4(C)C(CC[C@]5(C)C4CC=C4C6CC(C)(C)CC[C@]6(C(=O)O)CC[C@]45C)[C@]3(C)CO)OC[C@H](O)[C@@H]2O)[C@H](O)[C@H](O)[C@H]1O` (some centres undefined) it is > 4 mM (inactive).
As for `NC(=O)c1cc(Cl)c(C(N)=O)cc1Cl`, the Kd was > 4 mM (inactive).
As for `CCc1nnsc1C(=O)Nc1nccs1`, the figure is > 4 mM (inactive).
Turning to `Oc1cccc2[nH]ccc12`, the Kd is > 4 mM (inactive).
For `O=C(Nc1ccc(O)cc1)N1CCOCC1`, the Kd was > 4 mM (inactive).
Regarding `CN1CCC(NC(=S)NC2CC2)CC1`, the Kd is > 4 mM (inactive).
For the compound `O=C(CC1SC(=O)NC1=O)Nc1ccccc1` (centres undefined), the Kd was > 4 mM (inactive).
In the case of `CNC(=S)NCCN1CCOCC1`, the Kd is > 4 mM (inactive).
For `Cc1cc(NC(=O)Cc2cccs2)no1`, the Kd is > 4 mM (inactive).
On to `CNC(=O)n1ccc(C(=O)N2CCCCC2)n1`, for which the Kd is > 4 mM (inactive).
Regarding `Cc1onc(-c2c(F)cccc2Cl)c1C(N)=O`, the Kd was > 4 mM (inactive).
Take `O=C1c2ccncc2C(=O)N1CO`: the Kd was > 4 mM (inactive).
On to `Cc1cc(O)cc(=O)o1`, for which the Kd is > 4 mM (inactive).
Consider `CN1CCOc2cc(C(=O)O)ccc21`, for which the Kd is > 4 mM (inactive).
In the case of `Cc1ccc(NC(=O)/C=C2\SC(=O)NC2=O)cc1`, the Kd is > 4 mM (inactive).
Consider `Cc1ccc(NC(=O)C2CCCNC2=O)nc1` (centres undefined), for which the Kd was > 4 mM (inactive).
`O=c1[nH]oc2ccccc12`: the Kd was > 4 mM (inactive).
Regarding `O=C(Nc1cnccn1)c1cccnc1`, the Kd is > 4 mM (inactive).
Consider `CN=C(c1ccc([N+](=O)[O-])cc1)N(C)C`, for which the Kd was > 4 mM (inactive).
With `O=[N+]([O-])c1cccc2c1nnn2C(CO)OCCO` (centres undefined), the Kd was > 4 mM (inactive).
